Reference: patent US5922697A, “Compounds, compositions and methods for inhibiting the binding of proteins containing an SH2 domain to cognate phosphorylated proteins” (Warner-Lambert Company, priority 1998, dated 1999)
Read-outs that look alike come from different tables or passages of the source.

What was measured:
[1] = target: T1, PLCγ(C) SH2-GST binding to PDGF receptor kinase domain (Homo sapiens, UniProt P19174); assay: Inhibition of activated PDGF receptor binding to 35S-SH2 domains: PLCγ(C) SH2-GST; settings: 35S-PLCγ(C) SH2-GST, immobilized PDGF receptor kinase domain, pH 7.5, room temperature, 30 minutes
T1 construct: S-X-SH2-GST (X=Src, Ab1, Grb2, p85-N, p85-C, Syp-N, and PLCy-C domains)
T1 sequence (P19174 668-756 limits assumed): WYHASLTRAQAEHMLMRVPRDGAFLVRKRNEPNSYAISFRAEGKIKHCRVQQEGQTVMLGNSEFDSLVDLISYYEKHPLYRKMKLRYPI

[2] = target: T2, Abl SH2-GST binding to PDGF receptor kinase domain (Homo sapiens, UniProt P00519); assay: Inhibition of activated PDGF receptor binding to 35S-SH2 domains: Abl SH2-GST
T2 construct: S-X-SH2-GST (X=Src, Ab1, Grb2, p85-N, p85-C, Syp-N, and PLCy-C domains)
T2 sequence (P00519 127-217 limits assumed): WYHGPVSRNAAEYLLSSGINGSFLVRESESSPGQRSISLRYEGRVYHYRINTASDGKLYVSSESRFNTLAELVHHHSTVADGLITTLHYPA
Description: Inhibition of Activated PDGF Receptor Binding to ^35 S-SH2 Domains
The assay was conducted at room temperature for 30 minutes while continuously inverting the plate. The resultant SH2-GST-PDGF receptor kinase complex was separated from excess ^35 S-SH2-GST protein by vacuum filtration and the amount of bound SH2-GST was determined by scintillation counting. Results are expressed as IC50 values and/or % inhibition at specified concentrations in Table 2 below.

[3] = target: T3, Grb2 SH2-GST binding to PDGF receptor kinase domain (Homo sapiens, UniProt P62993); assay: Inhibition of activated PDGF receptor binding to 35S-SH2 domains: Grb2 SH2-GST; settings: 35S-Grb2 SH2-GST, immobilized PDGF receptor kinase domain, pH 7.5, room temperature, 30 minutes
T3 construct: S-X-SH2-GST (X=Src, Ab1, Grb2, p85-N, p85-C, Syp-N, and PLCy-C domains)

[4] = target: T4, Syp(N) SH2-GST binding to PDGF receptor kinase domain (Homo sapiens, UniProt Q06124); assay: Inhibition of activated PDGF receptor binding to 35S-SH2 domains: Syp(N) SH2-GST; settings: 35S-Syp(N) SH2-GST, immobilized PDGF receptor kinase domain, pH 7.5, room temperature, 30 minutes
T4 construct: S-X-SH2-GST (X=Src, Ab1, Grb2, p85-N, p85-C, Syp-N, and PLCy-C domains)

[5] = target: T5, p85(C) SH2-GST binding to PDGF receptor kinase domain (Homo sapiens, UniProt P27986); assay: Inhibition of activated PDGF receptor binding to 35S-SH2 domains: p85(C) SH2-GST; settings: 35S-p85(C) SH2-GST, immobilized PDGF receptor kinase domain, pH 7.5, room temperature, 30 minutes
T5 construct: S-X-SH2-GST (X=Src, Ab1, Grb2, p85-N, p85-C, Syp-N, and PLCy-C domains)

[6] = test system: Swiss 3T3 cells; assay: Inhibition of DNA synthesis as monitored by 3H-thymidine uptake; type: cell-based; settings: Swiss 3T3 cells stimulated with growth factor (PDGFbb or Fetal Bovine Serum), 24 hours; compound concentration not given
Description: Inhibition of DNA Synthesis as Monitored by ^3 H-Thymidine Uptake
DNA synthesis occurs when a cell is exposed to Platelet Derived Growth Factor (PDGF). For PDGF-induced DNA synthesis to occur, c-SRC or another member of the SRC gene family is required. The ability of the SRC SH2 inhibitors of the present invention to block PDGF-stimulated DNA synthesis can be assessed using the protocol set forth below.
Swiss 3T3 cells were grown in 12-well plates for 3 days to approximately 50% confluency. The growth media was removed and replaced with 1.0 mL/well of assay buffer (Dulbecco's Modified Eagle Medium containing 0.2% Bovine Serum Albumin), and incubated for 24 hours to arrest growth.
Test compounds (5 μL) were add at 100 times their final concentration. Methyl sulfoxide was used as a control and levels in all wells kept under 1.0% of DMSO. Cells were then stimulated with growth factor (PDGFbb or Fetal Bovine Serum), and allowed to incubate another 24 hours.
During the final 2 hours of treatment, 5 uL of 0.1 μCi/μL ^3 H-thymidine was added to each well (final=0.5 μCi/well)
After incubation the medium was removed by aspiration, and each well was washed twice with ice-cold phosphate buffered saline (0.5 mL/wash). 0.5 mL ice-cold 5% trichloroacetic acid was added to each well and incubated on ice for a minimum 10 minutes. The trichloroacetic acid solution was removed and each well was washed twice with 0.5 mL ice-cold trichloroacetic acid, and then once with ice-cold water (0.5 mL). 0.5 mL of 2% Sodium Dodecyl Sulfate was added to each well to solubilize the cells and allowed to incubate at room temperature for 10-15 minutes. The solubilized cells were transfered to 20 mL scintillation vials. Each well was washed with 0.5 mL of water and combined with the corresponding scintillation vial. 10 mL of Ready-Gel scintillation cocktail was added to each vial and the vials were then counted in a scintillation counter. Results are shown as percent of ^3 H-thymidine uptake relative to control in Table 4 below.

[7] = target: T6, Abl SH2 (Homo sapiens, UniProt P00519); assay: Inhibition of 125I-phosphopeptide binding to immobilized Abl SH2; settings: competitive 125I-phosphopeptide displacement, GST-Abl SH2 fusion protein, pH 7.5, room temperature, 20 minutes
T6 construct: glutathione-S-transferase(GST)-Abl SH2 fusion protein
T6 sequence (P00519 127-217 limits assumed): T2 sequence (P00519 127-217 limits assumed)
Description: The binding affinities of compounds of the present invention to Abl SH2 was determined using a competitive radiolabeled phosphopeptide displacement assay. […] Binding was performed at room temperature for 20 minutes while continuously inverting the plate.

[8] = target: T7, Src SH2 (Homo sapiens, UniProt P12931); assay: Inhibition of 125I-phosphopeptide binding to immobilized Src SH2; settings: competitive 125I-phosphopeptide displacement, GST-Src SH2 fusion protein, pH 7.5, room temperature, 20 minutes
T7 construct: glutathione-S-transferase(GST)-Src SH2 fusion protein
Description: The binding affinities of compounds of the present invention to Src SH2 was determined using a competitive radiolabeled phosphopeptide displacement assay.
Binding was performed at room temperature for 20 minutes while continuously inverting the plate. […] Results are expressed as IC50 values in Table 1 below.

[9] = read-out: IC50, Abl SH2 Binding
[10] = read-out: IC50, SRC SH2 Binding

T5 sequence (P27986 624-718 limits assumed): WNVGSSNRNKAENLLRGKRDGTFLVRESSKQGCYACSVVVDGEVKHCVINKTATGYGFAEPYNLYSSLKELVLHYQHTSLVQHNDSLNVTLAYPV
T3 sequence (P62993 60-152 limits assumed): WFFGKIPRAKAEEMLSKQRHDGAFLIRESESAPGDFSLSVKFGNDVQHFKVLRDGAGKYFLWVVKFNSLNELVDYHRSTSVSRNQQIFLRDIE
T4 sequence (Q06124 6-102): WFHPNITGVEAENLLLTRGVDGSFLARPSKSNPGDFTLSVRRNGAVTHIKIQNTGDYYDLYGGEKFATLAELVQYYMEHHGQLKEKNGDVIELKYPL
T7 sequence (P12931 151-248 limits assumed): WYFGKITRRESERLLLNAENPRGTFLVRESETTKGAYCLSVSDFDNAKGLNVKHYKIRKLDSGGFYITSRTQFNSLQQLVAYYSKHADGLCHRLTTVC

| SMILES | IC50 ([7]; IC50, Abl SH2 Binding) [µM] | IC50 ([8]; IC50, SRC SH2 Binding) [µM] | also measured |
| --- | --- | --- | --- |
| CC(=O)N[C@@H](Cc1ccc(OP(=O)(O)O)cc1)C(=O)NC(C)c1ccc(OCC2CCCCC2)c(C(N)=O)c1 (mixture of isomers) [Example 51, Phosphoric acid mono-(4-{(S)-2-acetylamino-2-[(RS)-1-(3-carbamoyl-4-cyclohexylmethoxy-phenyl)-ethylcarbamoyl]-ethyl}-phenyl) ester] |  |  | IC50 [1]: > 100 µM; IC50 [2]: 12.1 µM; IC50 [3]: ~100 µM; IC50 [4]: ~100 µM; IC50 [5]: > 100 µM |
| CC(=O)N[C@@H](Cc1ccc(C(F)(F)P(=O)(O)O)cc1)C(=O)NC(C)c1ccc(OCC2CCCCC2)c(C(N)=O)c1 (single isomer, unassigned) [Example 63a, [S-(R*,R*)]- or [S-(R*,S*)]-[(4-{2-Acetylamino-2-[1-(3-carbamoyl-4-cyclohexylmethoxy-phenyl)-ethylcarbamoyl]-ethyl]-phenyl)-difluoro-methyl]-phosphonic acid] |  |  | 3H-Thymidine Uptake, % Uptake Relative to Control [6]: 73%; IC50 [7, 9]: 2 µM; IC50 [8, 10]: 0.3 µM |
| CC(=O)N[C@@H](Cc1ccc(C(F)(F)P(=O)(O)OCOC(=O)C(C)(C)C)cc1)C(=O)NC(C)c1ccc(OCC2CCCCC2)c(C(N)=O)c1 (single isomer, unassigned) [Example 77, [S-(R*,R*)]- or [S-(R*,S*)]-2,2-Dimethyl-propionic acid {[(4-{2-Acetylamino-2-[1-(3-carbamoyl-4-cyclohexylmethoxy-phenyl)-ethylcarbamoyl]-ethyl}-phenyl)-difluoro-methyl} hydroxy-phosphinoyloxymethyl ester] |  |  | 3H-Thymidine Uptake, % Uptake Relative to Control [6]: 34% |
| CC(=O)N[C@@H](Cc1ccc(OP(=O)(O)O)cc1)C(=O)N[C@@H](CCC(=O)O)C(=O)N(C)CCCC1CCCCC1 [Example 1, [S-(R*,R*)]-4-[2-Acetylamino-3-(4-phosphonooxy-phenyl)-propionylamino]-4-[(3-cyclohexyl-propyl)-methylcarbamoyl]-butyric acid] |  |  | IC50 [1]: > 100 µM; IC50 [3]: > 100 µM; IC50 [4]: > 100 µM; IC50 [5]: > 100 µM |
| CC(=O)N[C@@H](Cc1ccc(C(F)(F)P(=O)(O)O)cc1)C(=O)N[C@@H](CCC(=O)O)C(=O)N(C)CCCC1CCCCC1 [Example 5, [S-(R*,R*)]-4-{2-Acetylamino-3-[4-(difluoro-phosphonomethyl)-phenyl]-propionylamino}-4-[(3-cyclohexylpropyl)-methyl-carbamoyl]-butyric acid] |  |  | IC50 [1]: > 100 µM; IC50 [3]: > 100 µM; IC50 [4]: > 100 µM; IC50 [5]: > 100 µM |
| CC[C@H](NC(=O)[C@H](Cc1ccc(C(F)(F)P(=O)(O)OCOC(=O)C(C)(C)C)cc1)NC(C)=O)C(=O)N(C)CCCC1CCCCC1 [Example 55, [S-(R*,R*)]-2,2-Dimethyl-propionic acid {[4-(2-acetylamino-2-{1-[(3-cyclohexyl-propyl)-methyl-carbamoyl]-propylcarbamoyl}-ethyl)-phenyl]-difluoro-methyl}-hydroxy-phosphinoyloxymethyl ester] |  |  | 3H-Thymidine Uptake, % Uptake Relative to Control [6]: 61%; IC50 [7, 9]: > 100 µM; IC50 [8, 10]: > 100 µM |
| CCC(CC)(NC(=O)[C@H](Cc1ccc(OP(=O)(O)O)cc1)NC(C)=O)C(=O)NCCCc1ccccc1 [Example 57, (S)-Phosphoric acid mono-(4-{2-acetylamino-2-[1-ethyl-1-(3-phenyl-propylcarbamoyl)-propylcarbamoyl]-ethyl}-phenyl) ester] | 20 | 33 |  |
| CC(=O)N[C@@H](Cc1ccc(OP(=O)(O)O)cc1)C(=O)N[C@H](C(=O)NCCCc1ccccc1)C(C)O (stereo partly drawn) [Example 58, [S-(R*,R*)]-Phosphoric acid mono-(4-{2-acetylamino-2-[2-hydroxy-1-(3-phenyl-propylcarbamoyl)-propylcarbamoyl]-ethyl}-phenyl) ester] | ~60 | 21 |  |
| CN(C)C(=O)N[C@@H](Cc1ccc(OP(=O)(O)O)cc1)C(=O)N[C@@H](CCC(=O)O)C(=O)N(C)CCCC1CCCCC1 [Example 59, [S-(R*,R*)]-4-[(3-Cyclohexyl-propyl)-methyl-carbamoyl]-4-[2-(3,3-dimethyl-ureido)-3-(4-phosphonooxy-phenyl)-propionylaminol-butyric acid] | 4.5 | 1.1 |  |
| CN(CCCC1CCCCC1)C(=O)[C@H](CCC(=O)O)NC(=O)[C@H](Cc1ccc(OP(=O)(O)O)cc1)NS(=O)(=O)N(C)C [Example 60, 5-[(3-cyclohexylpropyl)methylamino]-4-[[2-[[(dimethylamino)-sulfonyl]amino]-1-oxo-3-[4-(phosphonooxy)phenyl]propyl]amino]-5-oxo-pentanoic acid] | 9.7 | 1.9 |  |
| CN(CCCC1CCCCC1)C(=O)[C@H](CCC(=O)O)NC(=O)NCc1ccc(OP(=O)(O)O)cc1 [Example 61, (S)-4-[(3-Cyclohexyl-propyl)--methyl-carbamoyl]-4-[3-(4-phosphonooxy-benzyl)-ureido]-butyric acid] | ~100 | 16 |  |
| CN(CCCC1CCCCC1)C(=O)[C@H](CCC(=O)O)NC(=O)c1ccc(OP(=O)(O)O)cc1 [Example 62, (S)-4-[(3-Cyclohexyl-propyl)-methyl-carbamoyl]-4-(4-phosphonooxy-benzoylamino)-butyric acid] | 44 | 8.3 |  |
| CC(=O)N[C@@H](Cc1ccc(OP(=O)(O)O)cc1)C(=O)NCc1ccc(OCC2CCCCC2)c(C(=O)NO)c1 [Example 70, (S)-Phosphoric acid mono-{4-[2-acetylamino-2-(4-cyclohexylmethoxy-3-hydroxycarbamoyl-benzylcarbamoyl)-ethyl]-phenyl} ester] | 16 | 24 |  |
| CCc1ccccc1COc1ccc(CNC(=O)[C@H](Cc2ccc(OP(=O)(O)O)cc2)NC(C)=O)cc1C(N)=O [Example 72, (S)-Phosphoric acid mono-(4-{2-acetylamino-2-[3-carbamoyl-4-(2-ethyl-benzyloxy)-benzylcarbamoyl]-ethyl}-phenyl) ester] | 28 | 6.2 |  |
| NC(=O)c1cc(CNC(=O)Nc2ccc(OP(=O)(O)O)cc2)ccc1OCC1CCCCC1 [Example 74, Phosphoric acid mono-{4-[3-(3-carbamoyl-4-cyclohexylmethoxy-benzyl)-ureido]-phenyl} ester] | > 100 | 20 |  |
| NC(=O)c1cc(CNC(=O)NCc2ccc(OP(=O)(O)O)cc2)ccc1OCC1CCCCC1 [Example 76, Phosphoric acid mono-{4-[3-(3-carbamoyl-4-cyclohexylmethoxy-benzyl)-ureidomethyl]-phenyl} ester] | > 100 | 34 |  |
